Data reported in patent publication US9345247B2, “Azaindole carboxylic acid amides and azaindole thiocarboxylic acid amides for use as insecticides and acaricides” (BAYER CROPSCIENCE AG, priority 2012, dated 2016).
Read-outs that look alike come from different tables or passages of the source.

How the values were obtained:
[1] = log P by HPLC on reversed-phase column (C18), EEC directive 79/831 Annex V.A8; assay type: physicochemical; conditions: for chromatographic logP: reversed-phase HPLC column (C18)
Method: a) The determination of the W by LC-MS in the acidic range is effected at pH 2.7, acetonitrile (contains 0.1% formic acid) and water as eluents; linear gradient from 10% acetonitrile to 95% acetonitrile, instrument: Agilent 1100 LC-System, Agilent MSD System, HTS PAL. The log P values reported in the tables and Preparation Examples above were determined in accordance with EEC directive 79/831 Annex V.A8 by HPLC (High Performance Liquid Chromatography) using a reversed-phase column (C18). Temperature 43° C. The calibration is effected with unbranched alkan-2-ones (having 3 to 16 carbon atoms), for which the log P values are known.

[2] = test system: larvae of the mustard beetle (Phaedon cochleariae); test: Phaedon cochleariae spray test (PHAECO); assay type: in vivo; conditions: for pest or weed control at 100 g/ha / percent efficacy (larval mortality) at 20 g/ha: Phaedon cochleariae, 168 h; for pest or weed control at 100 g/ha / efficacy: spray, after 7 days; for pest or weed control at 100 g/ha: read-out: efficacy; for percent efficacy (larval mortality) at 20 g/ha: PHAECO, 20 g of ai/ha, 7 d, read-out: % Efficacy dat
Method: Phaedon cochleariae—Spray Test (PHAECO)
To produce a suitable preparation of active compound, 1 part by weight of active compound is mixed with the stated amounts of solvent and emulsifier, and the concentrate is diluted with emulsifier-containing water to the desired concentration.
Discs of Chinese cabbage leaves (Brassica pekinensis) are sprayed with an active compound formulation of the desired concentration and, after drying, populated with larvae of the mustard beetle (Phaedon cochleariae).
After 7 days, the efficacy in % is determined. 100% means that all the beetle larvae have been killed; 0% means that no beetle larvae have been killed.
After the stated period of time, the effect in % is determined 100% means that all the beetle larvae have been killed; 0% means that no beetle larvae have been killed.

[3] = HPLC, acidic range pH 2.7, 43° C., read-out: log p
[4] = HPLC, acidic range pH 2.7, 43° C.

Structure (SMILES)	log p [1, 4]	other results
CN(C(=O)c1cc2cc(C(=O)NC3(C#N)CC3)c(Cl)nc2n1C)C(c1cccc(C(F)(F)F)c1)C(F)(F)F (centres unmarked) [Compound 97]	–	chromatographic logP [1, 3]: 3.59; pest or weed control at 100 g/ha ([2]; 100 g/ha): 100%
CCn1c(C(=O)NC(c2ccc(F)c(C(F)(F)F)c2)C(F)(F)F)cc2cc(C(=O)NC3CCC3)c(Cl)nc21 (centres unmarked) [Compound 46]	4.20	efficacy ([2]; 100 g/ha): 100%
CCn1c(C(=O)NC(c2ccc(Cl)c(C(F)(F)F)c2)C(F)(F)F)cc2cc(C(=O)NC3CC3)c(C)nc21 (centres unmarked) [Compound 91]	3.90	–
CCn1c(C(=O)NC(c2ccc(F)c(C(F)(F)F)c2)C(F)(F)F)cc2cc(C(=O)NC(C)C)c(Cl)nc21 (centres unmarked) [Compound 50]	4.08	efficacy ([2]; 100 g/ha): 100%
CCn1c(C(=O)NC(c2cccc(C(F)(F)F)c2)C(F)(F)F)cc2cc(C(=O)NCc3ccccn3)c(Cl)nc21 (centres unmarked) [Compound 37]	3.18	efficacy ([2]; 100 g/ha): 100%
CCn1c(C(=O)NC(c2ccc(F)c(C(F)(F)F)c2)C(F)(F)F)cc2cc(C(=O)NCc3ccccn3)c(Cl)nc21 (centres unmarked) [Compound 55]	3.32	efficacy ([2]; 100 g/ha): 83%
CCn1c(C(=O)NC(c2cccc(C(F)(F)F)c2)C(F)(F)F)cc2cc(C(=O)NCc3ncccn3)c(Cl)nc21 (centres unmarked) [Compound 47]	3.39	efficacy ([2]; 100 g/ha): 100%
CN(C(=O)c1cc2cc(C(=O)NC3CC3)c(Cl)nc2n1C)C(c1cccc(C(F)(F)F)c1)C(F)(F)F (centres unmarked) [Compound 96]	–	chromatographic logP [1, 3]: 3.63; pest or weed control at 100 g/ha ([2]; 100 g/ha): 100%
CCn1c(C(=O)NC(c2cc(Cl)c(F)c(Cl)c2F)C(F)(F)F)cc2cc(C(=O)NC3CC3)c(Cl)nc21 (centres unmarked) [Compound 18]	4.43	efficacy ([2]; 100 g/ha): 100%
CCn1c(C(=O)NC(c2cccc(C(F)(F)F)c2)C(F)(F)F)cc2cc(C(=O)NCC(=O)OC)c(Cl)nc21 (centres unmarked) [Compound 44]	3.58	–
CCn1c(C(=O)NC(c2cccc(C(F)(F)F)c2)C(F)(F)F)cc2cc(C(=O)NC(C)CF)c(Cl)nc21 (centres unmarked) [Compound 36]	3.83	–
CCn1c(C(=O)NC(c2cccc(C(F)(F)F)c2)C(F)(F)F)cc2cc(C(=O)Nc3ccc(Cl)cn3)c(Cl)nc21 (centres unmarked) [Compound 40]	4.88	efficacy ([2]; 100 g/ha): 83%; efficacy ([2]; 500 g/ha): 100%
CCn1c(C(=O)NC(c2cc(Cl)c(F)c(Cl)c2)C(F)(F)F)cc2cc(C(=O)NC3CCC3)c(Cl)nc21 (centres unmarked) [Compound 48]	4.62	–
CCn1c(C(=O)NC(c2ccc(Cl)c(C(F)(F)F)c2)C(F)(F)F)cc2cc(C(=O)NC3(C#N)CC3)c(C)nc21 (centres unmarked) [Compound 90]	3.91	–
CCn1c(C(=O)NC(c2ccc(Cl)c(Cl)c2)C(F)(F)F)cc2cc(C(=O)NC3CCC3)c(Cl)nc21 (centres unmarked) [Compound 54]	4.47	–
CCn1c(C(=O)NC(c2cccc(C(F)(F)F)c2)C(F)(F)F)cc2cc(C(=O)NC)c(Cl)nc21 (centres unmarked) [Compound 51]	3.40	efficacy ([2]; 100 g/ha): 100%
CCn1c(C(=O)NC(c2ccc(Cl)c(C(F)(F)F)c2)C(F)(F)F)cc2cc(C(=O)NC3(C#N)CC3)c(Cl)nc21 (centres unmarked) [Compound 83]	4.02	–
CCn1c(C(=O)NC(c2ccc(Cl)c(C(F)(F)F)c2)C(F)(F)F)cc2cc(C(=O)NC3(C(N)=S)CC3)c(Cl)nc21 (centres unmarked) [Compound 84]	3.90	–
CCn1c(C(=O)NC(c2ccc(Cl)c(C(F)(F)F)c2)C(F)(F)F)cc2cc(C(=O)NC3CC3)c(Cl)nc21 (centres unmarked) [Compound 88]	4.06	–
CCn1c(C(=O)NC(c2cc(Cl)c(F)c(Cl)c2)C(F)(F)F)cc2cc(C(=O)NC3CC3)c(Cl)nc21 (centres unmarked) [Compound 20]	4.23	efficacy ([2]; 100 g/ha): 100%
C#CCn1c(C(=O)NC(c2cccc(C(F)(F)F)c2)C(F)(F)F)cc2cc(C(=O)Nc3ccc(Cl)cn3)c(Cl)nc21 (centres unmarked) [Compound 61]	4.49	efficacy ([2]; 100 g/ha): 83%
CCn1c(C(=O)NC(c2cc(Cl)c(F)c(Cl)c2F)C(F)(F)F)cc2cc(C(=O)NC(C)C)c(Cl)nc21 (centres unmarked) [Compound 19]	4.62	–
C#CCn1c(C(=O)NC(c2cc(Cl)c(F)c(Cl)c2F)C(F)(F)F)cc2cc(C(=O)NC3(C#N)CC3)c(Cl)nc21 (centres unmarked) [Compound 80]	3.99	–

Structure (SMILES)	log p [1, 4]	other results
CCn1c(C(=O)NC(c2ccc(Cl)c(C(F)(F)F)c2)C(F)(F)F)c(Br)c2cc(C(=O)NC3(C(N)=S)CC3)c(C)nc21 (centres unmarked) [Compound 98]	–	chromatographic logP [1, 3]: 3.97
CCn1c(C(=O)NC(c2ccc(Cl)c(Cl)c2)C(F)(F)F)cc2cc(C(=O)NC(C)C)c(Cl)nc21 (centres unmarked) [Compound 56]	4.29	–
CCn1c(C(=O)NC(c2cccc(C(F)(F)F)c2)C(F)(F)F)cc2cc(C(=O)NCC(F)F)c(Cl)nc21 (centres unmarked) [Compound 13]	3.79	efficacy ([2]; 100 g/ha): 100%
CCn1c(C(=O)NC(c2cc(Cl)c(F)c(Cl)c2)C(F)(F)F)cc2cc(C(=O)NC3CC3)c(C(F)(F)F)nc21 (centres unmarked) [Compound 86]	4.42	–
CCNC(=O)c1cc2cc(C(=O)NC(c3cccc(C(F)(F)F)c3)C(F)(F)F)n(CC)c2nc1Cl (centres unmarked) [Compound 52]	3.70	efficacy ([2]; 100 g/ha): 100%
CCn1c(C(=O)NC(c2ccc(Cl)c(C(F)(F)F)c2)C(F)(F)F)cc2cc(C(=O)NC3(C(N)=S)CC3)c(C)nc21 (centres unmarked) [Compound 89]	3.72	–
CCn1c(C(=O)NC(c2cc(Cl)c(F)c(Cl)c2F)C(F)(F)F)cc2cc(C(=O)NC3(C(N)=S)CC3)c(C(F)(F)F)nc21 (centres unmarked) [Compound 82]	4.45	–
C#CCn1c(C(=O)NC(c2cccc(C(F)(F)F)c2)C(F)(F)F)cc2cc(C(=O)NC3(C#N)CC3)c(C)nc21 (centres unmarked) [Compound 81]	3.34	–
CCn1c(C(=O)NC(c2cccc(C(F)(F)F)c2)C(F)(F)F)cc2cc(CNC(=O)C3CC3)c(C)nc21 (centres unmarked) [Compound 92]	3.59	–
CCn1c(C(=O)NC(c2cc(Cl)c(F)c(Cl)c2)C(F)(F)F)cc2cc(C(=O)NC(C)C)c(Cl)nc21 (centres unmarked) [Compound 21]	4.44	–
CCn1c(C(=O)NC(c2cccc(C(F)(F)F)c2)C(F)(F)F)cc2cc(C(=O)NC(C)C)c(C)nc21 (centres unmarked) [Compound 4]	3.74	efficacy ([2]; 100 g/ha): 100%
CCn1c(C(=O)NC(c2cc(Cl)c(F)c(Cl)c2)C(F)(F)F)cc2cc(C(=O)NC3(C#N)CC3)c(C(F)(F)F)nc21 (centres unmarked) [Compound 77]	4.36	–
CCCNC(=O)c1cc2cc(C(=O)NC(c3cccc(C(F)(F)F)c3)C(F)(F)F)n(CC)c2nc1Cl (centres unmarked) [Compound 34]	–	chromatographic logP [1, 3]: 3.99; pest or weed control at 100 g/ha ([2]; 100 g/ha): 100%; percent efficacy (larval mortality) at 20 g/ha [2]: 100%
CCn1c(C(=O)NC(c2cccc(C(F)(F)F)c2)C(F)(F)F)cc2cc(C(=O)NC(C)C)c(Cl)nc21 (centres unmarked) [Compound 14]	–	chromatographic logP [1, 3]: 3.97; pest or weed control at 100 g/ha ([2]; 100 g/ha): 100%; percent efficacy (larval mortality) at 20 g/ha [2]: 100%
CCn1c(C(=O)NC(c2ccc(F)c(Cl)c2)C(F)(F)F)cc2cc(C(=O)NC3CCC3)c(Cl)nc21 (centres unmarked) [Compound 49]	4.11	–
CCn1c(C(=O)NC(c2cc(Cl)c(F)c(Cl)c2F)C(F)(F)F)cc2cc(C(=O)NC3CC3)c(C(F)(F)F)nc21 (centres unmarked) [Compound 87]	4.66	–
CCn1c(C(=O)NC(c2cc(Cl)c(F)c(Cl)c2)C(F)(F)F)cc2cc(C(=O)NC3(C(N)=S)CC3)c(C(F)(F)F)nc21 (centres unmarked) [Compound 78]	4.25	–
CCn1c(C(=O)NC(c2cccc(C(F)(F)F)c2)C(F)(F)F)cc2cc(C(=O)NC(C)C)c(Cl)cc21 (centres unmarked) [reference compound]	–	percent efficacy (larval mortality) at 20 g/ha [2]: 0%
CCCNC(=O)c1cc2cc(C(=O)NC(c3cccc(C(F)(F)F)c3)C(F)(F)F)n(CC)c2cc1Cl (centres unmarked) [reference compound]	–	percent efficacy (larval mortality) at 20 g/ha [2]: 67%
CCn1c(C(=O)NC(c2cccc(C(F)(F)F)c2)C(F)(F)F)cc2cc(C(=O)NC(CF)CF)c(Cl)nc21 (centres unmarked) [Compound 35]	3.83	–
C#CCn1c(C(=O)NC(c2cc(Cl)c(F)c(Cl)c2)C(F)(F)F)cc2cc(C(=O)NC3CC3)c(C(F)(F)F)nc21 (centres unmarked) [Compound 79]	4.04	–
CCn1c(C(=O)NC(c2ccc(F)c(C(F)(F)F)c2)C(F)(F)F)cc2nc(C(=O)NC3CC3)ccc21 (centres unmarked) [Compound 2, N^5-Cyclopropyl-1-ethyl-N^2-{2,2,2-trifluoro-1-[4-fluoro-3-(trifluoromethyl)phenyl]ethyl}-1H-pyrrolo[3,2-b]pyridine-2,5-dicarboxamide]	–	chromatographic logP ([1]; pH 2.7, final compounds of the synthesis examples, read-out: log P (HPLC-MS)): 3.78
